Laboratory results reported in the supplement of paper PMC10307832.

Columns and labels:
Experiment in all cases: relative viability (nuclei count vs DMSO), 5 days (fraction); higher = more cells survive
BGJ398 + Tozasertib = compound: CCN1CCN(c2ccc(Nc3cc(N(C)C(=O)Nc4c(Cl)c(OC)cc(OC)c4Cl)ncn3)cc2)CC1 [BGJ398] + Cc1cc(Nc2cc(N3CCN(C)CC3)nc(Sc3ccc(NC(=O)C4CC4)cc3)n2)n[nH]1 [Tozasertib] (partner 0.1 µM)
Method in brief: (§1)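 Lung cancer cell lines were pin-tool dosed in 1536-well plates on the day after seeding, with either a lone drug or a fixed anchor-drug dose plus five library-drug doses (not always all listed) in √10 steps. Nuclei were counted on 4× images after 5 days. Relative viability is the ratio of treated-well to vehicle-well nuclei counts, with each value a median of duplicate plates.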

BGJ398 + Decitabine = compound: CCN1CCN(c2ccc(Nc3cc(N(C)C(=O)Nc4c(Cl)c(OC)cc(OC)c4Cl)ncn3)cc2)CC1 [BGJ398] + Nc1ncn([C@H]2C[C@H](O)[C@@H](CO)O2)c(=O)n1 [Decitabine] (partner 2 µM)
Method in brief: as §1

[1] = compound: C1=CC2=NC=CN=C2C=C1/C=C/3\C(=O)NC(=O)S3 + O=C(c1cc(Cc2n[nH]c(=O)c3ccccc23)ccc1F)N1CCN(C(=O)C2CC2)CC1 [Olaparib] (partner 8 µM)
Method in brief: as §1

[2] = compound: C1=CC2=NC=CN=C2C=C1/C=C/3\C(=O)NC(=O)S3 + CS(=O)(=O)CCNCc1ccc(-c2ccc3ncnc(Nc4ccc(OCc5cccc(F)c5)c(Cl)c4)c3c2)o1 [Lapatinib] (partner 2 µM)
Method in brief: as §1

Cell Line	relative viability (BGJ398 + Tozasertib; first compound 0.01 µM)	relative viability (BGJ398 + Tozasertib; first compound 0.03162 µM)	relative viability (BGJ398 + Tozasertib; first compound 0.1 µM)	relative viability (BGJ398 + Tozasertib; first compound 0.3162 µM)	relative viability (BGJ398 + Tozasertib; first compound 1 µM)	relative viability (BGJ398 + Decitabine; first compound 0.01 µM)	relative viability (BGJ398 + Decitabine; first compound 0.03162 µM)	relative viability (BGJ398 + Decitabine; first compound 0.1 µM)	relative viability (BGJ398 + Decitabine; first compound 0.3162 µM)	relative viability (BGJ398 + Decitabine; first compound 1 µM)	relative viability ([1]; first compound 0.02 µM)	relative viability ([1]; first compound 0.06325 µM)	relative viability ([1]; first compound 0.2 µM)	relative viability ([1]; first compound 0.6325 µM)	relative viability ([1]; first compound 2 µM)	relative viability ([2]; first compound 0.02 µM)	relative viability ([2]; first compound 0.06325 µM)	relative viability ([2]; first compound 0.2 µM)	relative viability ([2]; first compound 0.6325 µM)	relative viability ([2]; first compound 2 µM)
LU99A	0.286	0.282	0.261	0.197	0.265	0.776	0.763	0.735	0.756	0.68	0.28	0.416	0.276	0.243	0.26	0.976	1.06	1.07	0.854	0.645
LXF-289	0.173	0.189	0.207	0.167	0.196	0.351	0.415	0.332	0.325	0.38	0.993	0.997	1.06	1.01	1.01	0.829	0.932	0.883	0.857	0.908
NCI-H23	0.387	0.339	0.335	0.36	0.304	0.303	0.375	0.279	0.271	0.325	0.236	0.326	0.313	0.35	0.255	0.887	1.12	1.07	1.15	0.759
NCI-H322M	0.479	0.462	0.461	0.525	0.521	0.755	0.723	0.771	0.602	0.833	0.733	0.827	0.767	0.801	0.641	0.428	0.573	0.61	0.656	0.368
NCI-H358	0.0959	0.0952	0.109	0.102	0.1	0.184	0.215	0.208	0.201	0.2	0.559	0.663	0.65	0.667	0.419	0.554	0.497	0.461	0.359	0.274
NCI-H460	0.446	0.558	0.437	0.372	0.456	0.418	0.515	0.592	0.53	0.438	0.391	0.361	0.438	0.45	0.397	0.832	1.15	1.03	0.815	0.689
NCI-H520	0.424	0.421	0.321	0.273	0.271	0.538	0.436	0.397	0.242	0.295	0.283	0.321	0.352	0.298	0.345	0.842	0.92	0.832	0.757	0.882
NCI-H596	0.777	0.856	0.775	0.744	0.731	1.15	0.885	0.977	0.991	0.778	0.712	0.719	0.677	0.726	0.729	1.1	1.25	1.04	1.06	1.04
NCI-H647	0.366	0.294	0.406	0.24	0.304	0.413	0.359	0.491	0.336	0.412	0.438	0.532	0.537	0.51	0.496	1.06	1.75	1.15	0.957	0.903
NCI-H650	0.681	0.809	0.802	0.785	0.75	0.356	0.318	0.398	0.312	0.359	0.422	0.397	0.466	0.444	0.267	1.13	1.1	1.09	0.835	0.5
NCI-H661	0.325	0.369	0.365	0.354	0.362	0.51	0.491	0.61	0.55	0.529	0.682	0.733	0.733	0.746	0.715	0.46	0.495	0.464	0.45	0.39
NCI-H727	0.574	0.751	0.816	0.585	0.605	0.859	0.862	0.965	0.862	0.669	0.852	0.579	0.637	0.695	0.538	0.803	0.706	0.918	0.795	0.297
NCI-H838	0.317	0.305	0.262	0.234	0.201	0.389	0.463	0.552	0.463	0.378	0.731	0.872	0.795	0.71	0.636	1.06	1.09	0.969	0.827	0.707
NCI-H1355	0.57	0.566	0.455	0.491	0.538	0.378	0.309	0.348	0.352	0.348	0.656	0.766	0.77	0.699	0.726	0.811	0.929	1.05	0.919	0.766
NCI-H1395	0.739	0.789	0.72	0.624	0.511	0.684	0.692	0.609	0.648	0.649	0.43	0.427	0.464	0.5	0.438	1.13	1.06	1.46	0.935	0.963
NCI-H1437	0.414	0.418	0.418	0.4	0.427	0.59	0.532	0.606	0.598	0.515	0.584	0.648	0.623	0.643	0.653	0.791	0.825	0.806	0.715	0.572
